Values quoted from earlier work, collected in patent US6797472B1, “Variation in drug response related to polymorphisms in β2-adrenergic receptor” (Genaissance Pharmaceuticals, Inc., priority 1999, dated 2004).

Columns and labels:
Ile164 receptor [1] = target: T1, Ile164 receptor (Homo sapiens, UniProt P07550, T164I); settings: competition binding with [125I]cyp in the presence of GTP; reference 4
Ile164 receptor [2] = target: T1, Ile164 receptor; settings: previous studies

| Compound | binding affinity at Ile164 receptor (Ile164 receptor [1]) | stimulation of adenylyl cyclase by Ile164 receptor compared to Thr164 receptor (Ile164 receptor [2]) |
| --- | --- | --- |
| NCCc1ccc(O)c(O)c1 [dopamine] | normal binding affinities | does not show decreased stimulation |
| NC[C@H](O)c1ccc(O)c(O)c1 [norepinephrine] | small decrease in binding affinity |  |
| CNC[C@H](O)c1ccc(O)c(O)c1 [epinephrine] | small decrease in binding affinity | decreased stimulation |
